Assay results as given in patent US20050233970A1, “Methods for treating long QT syndrome” (priority 2004, published 2005).
Like-named read-outs stand apart in the source and are kept apart here. Square brackets hold non-standard residues; d marks the D form. Peptide text beside a SMILES is read from it. dPhe(4-Cl) = N[C@H](Cc1ccc(Cl)cc1)C(=O)O; d2Nal = N[C@H](Cc1ccc2ccccc2c1)C(=O)O; Lys(iPr) = CC(C)NCCCC[C@H](N)C(=O)O; NMeY = CN[C@@H](Cc1ccc(O)cc1)C(=O)O; d3Pal = N[C@H](Cc1cccnc1)C(=O)O

Key:
QT interval [1] = settings: human, in vivo
Protocol: Studies II and III required an ECG at baseline and on day 169 and, if the patient continued, on day 365. […] The ECG machine-calculated heart rate and QT interval were entered into a database. QTcB and QTcF were calculated utilizing standard formulas.^(F)
QTc evaluations included measurement of baseline, post baseline, on-therapy and change from baseline in QTcB and QTcF in each treatment group.
ECG measurement of QTcB and QTcF were calculated based on standard QT and heart rate measurements. T-tests were used to evaluate intra as well as inter-treatment change from baseline for each treatment group. Comparisons between treatment groups were performed in a pair wise manner.

QT interval [2] = settings: human, in vivo; remark: listed apart in the source
Protocol: Abarelix was given as a dose of 100 mg IM on days 1, 15, 29 and every 28 days thereafter for 48 weeks. Prospectively, a standard 12-lead ECG was performed at baseline and on days 85 and 337. Plasma testosterone samples were obtained at the same time. All ECG's were analyzed in a blinded fashion to treatment allocation. Each ECG was analyzed in comparison to its respective baseline for heart rate, QRS duration, PR interval, QT interval, and QTc. Concomitant medicines and prior medical history was recorded on all patients. Patients with a baseline QT of >450 msec were to be excluded from the study. If a patient experienced a QTcB of ≧500 msec while on study, therapy was to be discontinued. […] They are the focus of this report.

testosterone [3] = experiment: Studies II and III: plasma testosterone (radioimmunoassay) on ECG study days; assay type: in vivo, human
Protocol: QTcB and QTcF were calculated utilizing standard formulas.^(F)
Laboratory analysis of testosterone and dihydrotestosterone were determined using certified central laboratories and standard radioimmunoessay methods.

testosterone [4] = experiment: Study I: plasma testosterone (radioimmunoassay) on ECG study days; assay type: in vivo, human
Protocol: Abarelix was given as a dose of 100 mg IM on days 1, 15, 29 and every 28 days thereafter for 48 weeks. […] Plasma testosterone samples were obtained at the same time. All ECG's were analyzed in a blinded fashion to treatment allocation. Each ECG was analyzed in comparison to its respective baseline for heart rate, QRS duration, PR interval, QT interval, and QTc. Concomitant medicines and prior medical history was recorded on all patients. […] If a patient experienced a QTcB of ≧500 msec while on study, therapy was to be discontinued. Laboratory analysis of testosterone and dihydrotestosterone were determined using certified central laboratories and standard radioimmunoessay methods.

SMILES	QTcB Baseline (QT interval [1])	QTcB On Therapy (QT interval [1])	QTcF Baseline (QT interval [1])	QTcF On Therapy (QT interval [1])	QTcB Baseline (QT interval [2])	QTcB On Therapy (QT interval [2])	QTcF Baseline (QT interval [2])	QTcF Change from Baseline (QT interval [2])	QTcF On Therapy (QT interval [2])	Testosterone Levels, Median (testosterone [3]; Baseline)	Testosterone Levels, Median (testosterone [3]; Day 169)	Testosterone Levels, Median (testosterone [4]; Baseline)	Testosterone Levels, Median (testosterone [4]; Day 85)	Testosterone Levels, Median (testosterone [4]; Day 337)
CC(=O)N[C@H](Cc1ccc2ccccc2c1)C(=O)N[C@H](Cc1ccc(Cl)cc1)C(=O)N[C@H](Cc1cccnc1)C(=O)N[C@@H](CO)C(=O)N(C)[C@@H](Cc1ccc(O)cc1)C(=O)N[C@H](CC(N)=O)C(=O)N[C@@H](CC(C)C)C(=O)N[C@@H](CCCCNC(C)C)C(=O)N1CCC[C@H]1C(=O)N[C@H](C)C(N)=O [Abarelix, abarelix] (Ac-[d2Nal][dPhe(4-Cl)][d3Pal]S[NMeY][dN]L[Lys(iPr)]P[dA]-NH2)	417.9 (28.6) msec	431.7 (29.8) msec	410.6 (28.1) msec	423.4 (28.0) msec	413.5 (26.8) msec	426.8 (22.9) msec	404.6 (23.5) msec	12.0 (16.2) msec	419.5 (21.3) msec	361 ng/dL	14 ng/dL	316 ng/dL	23 ng/dL	35 ng/dL
CCNC(=O)[C@@H]1CCCN1C(=O)[C@H](CCCNC(=N)N)NC(=O)[C@H](CC(C)C)NC(=O)[C@@H](CC(C)C)NC(=O)[C@H](Cc1ccc(O)cc1)NC(=O)[C@H](CO)NC(=O)[C@H](Cc1c[nH]c2ccccc12)NC(=O)[C@H](Cc1c[nH]cn1)NC(=O)[C@@H]1CCC(=O)N1 [Leuprolide, leuprolide]	421.6 (29.4) msec	441.6 (25.8) msec	414.5 (26.0) msec	432.1 (23.6) msec						342 ng/dL	9 ng/dL			
